According to ChEMBL document CHEMBL6178017, “Intercepting the Downstream of the Estrogen Receptor Signaling Pathway: Discovery of a Potent and Efficient SRC-3 PROTAC Degrader for Overcoming Endocrine Resistance Breast Cancer” (J Med Chem, 2025):
Activity calls are given as the source filed them. The rule behind the calls is not given here.

Key:
[1] = Cmax in Balb/c mouse at 20 mg/kg, po by LC-MS/MS analysis; assay type: ADME, organism-based; conditions: in vivo
LNCaP = test: Antiproliferative activity against human LNCaP cells assessed as inhibition of cell growth by CCK-8 assay; assay type: functional, cell-based
[2] = Induction of apoptosis in tamoxifen-resistant human LCC2 cells assessed as early apoptotic cells at 10 uM incubated for 48 hrs by AnnexinV-FITC/PI staining based flow cytometry (reference value: 5.92%); assay type: functional, Tamoxifen-resistant LCC2 cell
MCF7 = test: Antiproliferative activity against human MCF7 cells overexpressing EGFR assessed as inhibition of cell growth by CCK-8 assay; assay type: functional, cell-based
[3] = Volume of distribution at steady state in Balb/c mouse at 2 mg/kg, iv by LC-MS/MS analysis; assay type: ADME, organism-based; conditions: in vivo, read-out: Vdss
[4] = target: Protein cereblon/Nuclear receptor coactivator 1 (Homo sapiens) (UniProt Q15788+Q96SW2); test: PROTAC activity at CRBN/SRC-1 in human MCF7 cells assessed as induction of SRC-1 degradation at 0.01 to 10 uM measured after 36 hrs by immunoblot analysis; assay type: cell-based; conditions: dose 0.01-10 µM
Chain of Protein cereblon/Nuclear receptor coactivator 1 (Homo sapiens) (Q15788 whole entry, looked up): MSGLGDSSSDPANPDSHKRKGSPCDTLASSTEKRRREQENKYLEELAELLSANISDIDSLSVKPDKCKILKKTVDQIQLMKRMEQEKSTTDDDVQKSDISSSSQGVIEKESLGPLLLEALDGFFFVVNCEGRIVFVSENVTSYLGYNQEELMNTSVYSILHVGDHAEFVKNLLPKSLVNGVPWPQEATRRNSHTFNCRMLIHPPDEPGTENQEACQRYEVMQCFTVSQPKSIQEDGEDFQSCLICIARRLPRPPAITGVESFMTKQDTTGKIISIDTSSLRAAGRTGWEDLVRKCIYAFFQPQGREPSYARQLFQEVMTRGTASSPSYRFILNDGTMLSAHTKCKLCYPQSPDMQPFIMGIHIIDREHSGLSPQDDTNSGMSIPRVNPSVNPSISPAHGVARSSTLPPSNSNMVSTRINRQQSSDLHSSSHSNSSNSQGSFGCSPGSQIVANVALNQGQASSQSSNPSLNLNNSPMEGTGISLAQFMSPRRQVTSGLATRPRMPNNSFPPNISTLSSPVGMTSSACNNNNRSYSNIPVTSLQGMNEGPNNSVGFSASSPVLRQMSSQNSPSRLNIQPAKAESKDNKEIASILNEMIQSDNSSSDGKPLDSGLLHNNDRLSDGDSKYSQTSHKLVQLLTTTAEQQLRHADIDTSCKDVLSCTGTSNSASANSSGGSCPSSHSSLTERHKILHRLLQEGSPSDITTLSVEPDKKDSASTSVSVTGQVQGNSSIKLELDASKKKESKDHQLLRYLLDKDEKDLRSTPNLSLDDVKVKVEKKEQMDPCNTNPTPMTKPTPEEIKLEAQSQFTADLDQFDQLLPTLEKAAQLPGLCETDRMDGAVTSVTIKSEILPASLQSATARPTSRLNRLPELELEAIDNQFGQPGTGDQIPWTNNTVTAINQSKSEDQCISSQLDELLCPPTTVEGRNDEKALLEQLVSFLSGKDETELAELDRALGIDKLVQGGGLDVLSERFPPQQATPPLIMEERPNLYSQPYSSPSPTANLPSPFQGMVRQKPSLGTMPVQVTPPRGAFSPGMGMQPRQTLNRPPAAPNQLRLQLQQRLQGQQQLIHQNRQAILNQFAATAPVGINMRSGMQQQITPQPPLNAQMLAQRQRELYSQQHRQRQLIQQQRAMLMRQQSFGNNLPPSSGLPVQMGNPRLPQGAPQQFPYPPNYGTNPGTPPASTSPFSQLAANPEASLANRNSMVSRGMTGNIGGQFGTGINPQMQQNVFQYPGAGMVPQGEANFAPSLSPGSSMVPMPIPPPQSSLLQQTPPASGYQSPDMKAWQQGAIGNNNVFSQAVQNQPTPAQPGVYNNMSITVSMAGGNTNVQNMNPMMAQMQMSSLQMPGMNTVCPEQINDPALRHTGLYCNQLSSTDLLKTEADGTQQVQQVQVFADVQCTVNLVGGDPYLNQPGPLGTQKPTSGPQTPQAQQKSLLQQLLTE
Chain of Protein cereblon/Nuclear receptor coactivator 1 (Homo sapiens) (Q96SW2 whole entry, looked up): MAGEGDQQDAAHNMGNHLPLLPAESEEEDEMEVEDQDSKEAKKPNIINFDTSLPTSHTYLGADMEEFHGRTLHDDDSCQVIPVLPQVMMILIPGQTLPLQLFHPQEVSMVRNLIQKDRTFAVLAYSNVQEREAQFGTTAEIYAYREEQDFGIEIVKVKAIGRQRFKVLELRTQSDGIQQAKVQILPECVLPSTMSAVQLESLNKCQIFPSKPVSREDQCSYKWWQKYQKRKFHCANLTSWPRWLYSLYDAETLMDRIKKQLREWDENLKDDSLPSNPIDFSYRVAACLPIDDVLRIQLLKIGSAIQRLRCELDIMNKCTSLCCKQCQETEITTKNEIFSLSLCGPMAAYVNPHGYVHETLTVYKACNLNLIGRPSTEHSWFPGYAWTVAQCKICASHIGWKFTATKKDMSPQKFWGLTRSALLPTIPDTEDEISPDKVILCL

[5] = Induction of apoptosis in tamoxifen-resistant human LCC2 cells assessed as early apoptotic cells at 20 uM incubated for 48 hrs by AnnexinV-FITC/PI staining based flow cytometry (reference value: 5.92%); assay type: functional, Tamoxifen-resistant LCC2 cell
[6] = Half life in Balb/c mouse at 4 mg/kg, ip by LC-MS/MS analysis; assay type: ADME, organism-based; conditions: in vivo
[7] = target: T1, Protein cereblon/Nuclear receptor coactivator 3 (Homo sapiens, UniProt Q9Y6Q9+Q96SW2); test: PROTAC activity at CRBN/SRC-3 in human MCF-7 cells harboring Y537S mutant assessed as induction of SRC-3 degradation by measuring downregulation of SRC-3 protein level at 0.1 uM measured after 36 hrs by immunoblot analysis; assay type: cell-based; conditions: MCF7
T1 sequence (Q96SW2 whole entry partner): as the sequence (Q96SW2 whole entry, looked up) above
T1 sequence (Q9Y6Q9 2-1424 limits assumed): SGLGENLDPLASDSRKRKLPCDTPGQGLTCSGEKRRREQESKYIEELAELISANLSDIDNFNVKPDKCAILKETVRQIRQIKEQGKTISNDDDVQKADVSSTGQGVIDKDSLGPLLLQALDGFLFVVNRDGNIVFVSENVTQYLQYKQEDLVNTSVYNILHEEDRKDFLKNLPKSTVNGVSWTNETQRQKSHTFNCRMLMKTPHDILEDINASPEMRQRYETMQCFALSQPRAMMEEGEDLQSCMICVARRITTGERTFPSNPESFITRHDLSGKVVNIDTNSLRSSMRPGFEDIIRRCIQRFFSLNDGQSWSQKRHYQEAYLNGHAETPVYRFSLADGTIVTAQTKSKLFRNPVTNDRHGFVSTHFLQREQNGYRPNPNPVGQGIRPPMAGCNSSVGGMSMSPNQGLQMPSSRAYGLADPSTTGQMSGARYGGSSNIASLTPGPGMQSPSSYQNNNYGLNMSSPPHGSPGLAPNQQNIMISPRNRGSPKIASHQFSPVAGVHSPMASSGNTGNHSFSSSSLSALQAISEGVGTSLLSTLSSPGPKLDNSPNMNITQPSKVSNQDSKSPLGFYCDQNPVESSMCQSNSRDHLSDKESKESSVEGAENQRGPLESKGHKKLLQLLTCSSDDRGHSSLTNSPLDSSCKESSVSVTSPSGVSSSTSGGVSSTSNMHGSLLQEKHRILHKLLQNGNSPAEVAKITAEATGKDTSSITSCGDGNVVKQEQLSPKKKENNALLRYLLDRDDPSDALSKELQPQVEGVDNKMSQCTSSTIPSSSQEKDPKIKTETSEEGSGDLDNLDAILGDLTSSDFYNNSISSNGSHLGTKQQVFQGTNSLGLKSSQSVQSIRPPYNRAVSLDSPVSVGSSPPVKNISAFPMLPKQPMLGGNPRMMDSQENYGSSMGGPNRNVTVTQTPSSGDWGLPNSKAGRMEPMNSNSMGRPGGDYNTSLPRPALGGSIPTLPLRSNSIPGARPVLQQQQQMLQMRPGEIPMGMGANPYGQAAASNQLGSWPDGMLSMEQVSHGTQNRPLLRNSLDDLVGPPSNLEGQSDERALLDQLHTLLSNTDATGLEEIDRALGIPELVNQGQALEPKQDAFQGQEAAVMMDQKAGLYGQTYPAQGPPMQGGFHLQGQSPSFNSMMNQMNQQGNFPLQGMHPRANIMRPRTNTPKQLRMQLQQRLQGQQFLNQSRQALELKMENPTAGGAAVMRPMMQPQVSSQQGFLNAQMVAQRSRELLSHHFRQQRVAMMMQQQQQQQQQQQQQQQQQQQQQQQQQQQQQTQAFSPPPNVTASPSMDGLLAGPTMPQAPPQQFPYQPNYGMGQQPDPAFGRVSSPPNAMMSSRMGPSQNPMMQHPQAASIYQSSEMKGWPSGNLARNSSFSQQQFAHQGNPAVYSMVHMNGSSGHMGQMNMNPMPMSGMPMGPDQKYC

[8] = tested on: Tamoxifen-resistant LCC2 cell; test: Antitumor activity against tamoxifen-resistant human LCC2 cells xenografted in Balb/c mouse assessed as reduction in Ki67 expression in tumor tissues at 5 uM/Kg, ip administered once every 2 days for 23 days and measured on day 25 by Hematoxylin-Eosin staining based immunohistochemical staining analysis; assay type: functional, organism-based; conditions: time 25.0 day
[9] = Induction of cell cycle arrest in tamoxifen-resistant human LCC2 cells assessed as accumulation of cells at S phase at 5 uM incubated for 48 hrs by propidium iodide staining based flow cytometry (reference value: 9.72%); assay type: functional
[10] = target: T1, Protein cereblon/Nuclear receptor coactivator 3; test: PROTAC activity at CRBN/SRC-3 in tamoxifen-resistant human LCC2 cells assessed as induction of SRC-3 degradation at 1 uM preincubated with proteasome inhibitor, bortezomib for 2 hrs followed by incubation with compound and measured after 36 hrs by immunoblot analysis; assay type: cell-based; conditions: Tamoxifen-resistant LCC2 cell
Cytochrome P450 3A4 = Cytochrome P450 3A4 (Homo sapiens, UniProt P08684); test: Inhibition of CYP3A4(unknown origin) using testosterone as substrate; assay type: ADME
Chain of Cytochrome P450 3A4 (P08684 whole entry): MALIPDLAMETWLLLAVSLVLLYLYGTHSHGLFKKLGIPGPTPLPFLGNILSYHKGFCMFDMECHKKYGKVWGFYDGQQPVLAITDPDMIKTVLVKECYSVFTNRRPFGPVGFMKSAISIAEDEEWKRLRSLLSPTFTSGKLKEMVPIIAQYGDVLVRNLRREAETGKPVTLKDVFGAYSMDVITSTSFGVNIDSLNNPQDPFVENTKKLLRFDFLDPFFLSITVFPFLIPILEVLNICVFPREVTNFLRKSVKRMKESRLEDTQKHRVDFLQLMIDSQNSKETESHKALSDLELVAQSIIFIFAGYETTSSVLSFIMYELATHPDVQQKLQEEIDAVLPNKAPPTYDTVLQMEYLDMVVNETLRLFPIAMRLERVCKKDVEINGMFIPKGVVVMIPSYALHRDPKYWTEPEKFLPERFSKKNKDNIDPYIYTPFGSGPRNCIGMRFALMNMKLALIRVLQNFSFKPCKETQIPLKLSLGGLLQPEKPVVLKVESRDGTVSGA

Mus musculus = test: In vivo PROTAC activity at CRBN/SRC-3 in Balb/c mouse xenografted with tamoxifen-resistant human LCC2 cells assessed as downregulation of ER-alpha protein level in tumor tissues at 5 uM/Kg, ip administered once every 2 days for 23 days and measured on day 25 by western blot analysis; assay type: functional, organism-based; conditions: time 25.0 day
[11] = target: T1, Protein cereblon/Nuclear receptor coactivator 3; test: PROTAC activity at CRBN/SRC-3 in human MCF7 cells assessed as induction of SRC-3 degradation at 1 uM incubated for 24 hrs by immunoblot analysis relative to control; assay type: cell-based
[12] = Antiproliferative activity against tamoxifen-resistant human LCC2 cells assessed as inhibition of cell growth by CCK8 assay; assay type: functional, cell-based
[13] = Cmax in Balb/c mouse at 4 mg/kg, ip by LC-MS/MS analysis; assay type: ADME, organism-based; conditions: in vivo
[14] = Induction of apoptosis in tamoxifen-resistant human LCC2 cells assessed as necrotic cells at 5 uM incubated for 48 hrs by AnnexinV-FITC/PI staining based flow cytometry (reference value: 1.16%); assay type: functional, Tamoxifen-resistant LCC2 cell
[15] = Induction of apoptosis in tamoxifen-resistant human LCC2 cells assessed as viable cells at 10 uM incubated for 48 hrs by AnnexinV-FITC/PI staining based flow cytometry (reference value: 88.09%); assay type: functional; conditions: Tamoxifen-resistant LCC2 cell, read-out: Activity
[16] = target: T1, Protein cereblon/Nuclear receptor coactivator 3; test: PROTAC activity at CRBN/SRC-3 in human MCF7 cells assessed as induction of SRC-3 degradation at 1 uM preincubated with proteasome inhibitor, bortezomib for 2 hrs followed by incubation with compound and measured after 36 hrs by immunoblot analysis; assay type: cell-based
[17] = Induction of cell cycle arrest in tamoxifen-resistant human LCC2 cells assessed as accumulation of cells at G1 phase at 10 uM incubated for 48 hrs by propidium iodide staining based flow cytometry (reference value: 78.71%); assay type: functional
[18] = target: T1, Protein cereblon/Nuclear receptor coactivator 3; test: PROTAC activity at CRBN/SRC-3 in tamoxifen-resistant human LCC2 cells assessed as maximal induction of SRC-3 degradation at 1 uM incubated for 36 hrs by immunoblot analysis; assay type: cell-based; conditions: Tamoxifen-resistant LCC2 cell
[19] = target: Nuclear receptor coactivator 3 (Homo sapiens) (UniProt Q9Y6Q9); test: Binding affinity to SRC-3 in human MCF7 cells assessed as increase in thermal stability of the protein at 1 uM incubated for 6 hrs followed by exposure to higher temperatures for 5 mins by CETSA analysis; assay type: cell-based; conditions: time 365.0 min
Chain of Nuclear receptor coactivator 3 (Homo sapiens) (Q9Y6Q9 2-1424 limits assumed): as the sequence (Q9Y6Q9 2-1424 limits assumed) above

[20] = Induction of apoptosis in tamoxifen-resistant human LCC2 cells assessed as necrotic cells at 10 uM incubated for 48 hrs by AnnexinV-FITC/PI staining based flow cytometry (reference value: 1.16%); assay type: functional, Tamoxifen-resistant LCC2 cell
[21] = target: T1, Protein cereblon/Nuclear receptor coactivator 3; test: PROTAC activity at CRBN/SRC-3 in tamoxifen-resistant human LCC2 cells assessed as induction of SRC-3 degradation at 1 uM preincubated with autophagy inhibitor, choloroquine for 2 hrs followed by incubation with compound and measured after 36 hrs by immunoblot analysis; assay type: cell-based; conditions: Tamoxifen-resistant LCC2 cell
[22] = target: T1, Protein cereblon/Nuclear receptor coactivator 3; test: PROTAC activity at CRBN/SRC-3 in human MCF7 cells assessed as maximal induction of SRC-3 degradation at 1 uM incubated for 36 hrs by immunoblot analysis; assay type: cell-based
[23] = Induction of cell cycle arrest in tamoxifen-resistant human LCC2 cells assessed as accumulation of cells at S phase at 20 uM incubated for 48 hrs by propidium iodide staining based flow cytometry (reference value: 9.72%); assay type: functional
[24] = Toxicity against Balb/c mouse xenografted with tamoxifen-resistant human LCC2 cells assessed as effect on liver pathological changes at 3 to 5 uM/Kg, ip administered once every 2 days for 23 days and measured on day 25 by Hematoxylin-Eosin based […] staining analysis; assay type: organism-based; conditions: in vivo, 600 h, dose 3-5 µM/Kg, time 25 day
[25] = target: T1, Protein cereblon/Nuclear receptor coactivator 3; test: PROTAC activity at CRBN/SRC-3 in tamoxifen-resistant human LCC2 cells assessed as degradation of SRC-3 at 10 uM measured after 36 hrs by diaPASEF-based quantitative proteomics analysis relative to control; conditions: Tamoxifen-resistant LCC2 cell
[26] = Half life in Balb/c mouse at 2 mg/kg, iv by LC-MS/MS analysis; assay type: ADME, organism-based; conditions: in vivo
[27] = AUC(0 to t) in Balb/c mouse at 2 mg/kg, iv by LC-MS/MS analysis; assay type: ADME, organism-based; conditions: in vivo
[28] = tested on: Tamoxifen-resistant LCC2 cell; test: Upregulation of SRC3 mRNA expression in tamoxifen-resistant human LCC2 cells at 0.01 to 10 uM incubated for 36 hrs by qRT-PCR analysis; assay type: functional, cell-based; conditions: dose 0.01-10 µM
[29] = Tmax in Balb/c mouse at 4 mg/kg, ip by LC-MS/MS analysis; assay type: ADME, organism-based; conditions: in vivo

Molecule `C/C(=N\Nc1nc2ccccc2n1C1CN(C2CCN(c3cccc4c3C(=O)N(C3CCC(=O)NC3=O)C4=O)CC2)C1)c1ccccn1` (stereo not drawn) has a Cmax [1] of 25.4 ng/mL, an IC50 (LNCaP) of 1430 nM and an Activity [2] of 24.23%. For the same molecule, the IC50 (MCF7) was 70 nM, the Vd [3] was 29.1 L/kg and the Activity [4] was “Active; Moderate Degradation Against Src-1 Compared To Src-3 Observed”. The Activity [5] was 31.96%, the half-life [6] was 3.46 h and the Activity [7] was “Active”. For the same molecule, the Activity [8] was “Active”, the Activity [9] was 14.53% and the Activity [10] was “inactive”. The IC50 (Cytochrome P450 3A4) was 2730 nM, the Activity (Mus musculus) was “Active” and the Activity [11] was 71%. For the same molecule, the IC50 [12] was 350 nM, the Cmax [13] was 31.2 ng/mL and the Activity [14] was 10.46%. For the same molecule, the viability at 10 µM [15] was 48.7%, the Activity [16] was “inactive” and the Activity [17] was 85.01%. For the same molecule, the Activity [18] was “Active”, the Activity [19] was “Active” and the Activity [20] was 6.62%. For the same molecule, the Activity [21] was “Active”, the Activity [22] was “Active” and the Activity [23] was 11.58%. For the same molecule, the Activity [24] was “Non-toxic”, the log2FC [25] was 0.25 and the half-life [26] was 3.44 h. The AUC(0-t) [27] was 318 ng·h/mL, the Activity [28] was “Active” and the Tmax [29] was 0.33 h.
